Assay results taken from ChEMBL document CHEMBL1146998, “Cespitulactones A and B, new diterpenoids from Cespitularia taeniata” (Bioorg Med Chem Lett, 2006).
Values after ≈ are worked out from the molar mass of the structure shown.

Assays:
Assay type in all cases: functional, cell-based
Daoy = assay: Cytotoxicity against human Daoy cell line by MTT assay
WiDr = assay: Cytotoxicity against human WiDr cell line by MTT assay
HeLa = assay: Cytotoxicity against human HeLa cell line by MTT assay
DLD-1 = assay: Cytotoxicity against human DLD1 cell line by MTT assay

SMILES	IC50 (Daoy)	IC50 (WiDr)	IC50 (HeLa)	IC50 (DLD-1)
C=C1CC[C@@H]2CC[C@H](OC(=O)C/C(C)=C/[C@@H](OC(=O)c3ccccc3)C1)C(=O)C2(C)C	> 20 µg/mL	> 20 µg/mL	–	–
C=C1CC[C@@H]2CC[C@H](OC(=O)C/C(C)=C/[C@@H](OC(=O)c3ccc(Cl)cc3)C1)C(=O)C2(C)C	> 20 µg/mL	> 20 µg/mL	–	–
CC(=O)O[C@@H]1/C(C(C)C)=C\C=C(/C)CC/C=C(\C)CC[C@@H]2O[C@@]2(C)[C@H]1OC(C)=O	16.9 µg/mL (≈ 41.8 µM)	13.8 µg/mL (≈ 34.1 µM)	–	–
C=C1CC[C@@H]2CC[C@H](OC(=O)C/C(C)=C/[C@@H](OC(C)=O)C1)C(=O)C2(C)C [CESPITULACTONE A MONOACETATE]	> 20 µg/mL	> 20 µg/mL	–	–
C=C1CC[C@@H]2CC[C@H](OC(=O)C/C(C)=C/[C@@H](O)C1)C(=O)C2(C)C [CESPITULACTONE A]	> 20 µg/mL	> 20 µg/mL	3.69 µg/mL (≈ 11.5 µM)	9.98 µg/mL (≈ 31.1 µM)
C=C1CC[C@@H]2CCC3=C(C2(C)C)[C@@](OC)(C/C(C)=C/[C@@H](O)C1)OC3=O [CESPITULACTONE B]	> 20 µg/mL	> 20 µg/mL	–	–
C=C1CC[C@@H]2CCC3=C(C2(C)C)[C@@](O)(C/C(C)=C/[C@@H](O)C1)OC3=O [CESPITULARIN D]	> 20 µg/mL	> 20 µg/mL	–	–
C=C1CC[C@@H]2CCC3=C(C(=O)[C@@H](/C(C)=C/C(O)C1)[C@H]3O)C2(C)C (stereo not given in full) [CESPITULARIN F]	> 20 µg/mL	> 20 µg/mL	–	–
C=C1CC[C@@H]2CCC3=C(C(=O)[C@@H](/C(C)=C/[C@@H](OC(C)=O)C1)[C@H]3O)C2(C)C [CESPITULARIN J]	> 20 µg/mL	> 20 µg/mL	–	–
